Measurements published in BindingDB's records for doi:10.1021/jm00107a015 (Institute of Cancer Research, 1991).

Assay: Growth inhibition of thymidylate synthase(TS) in L1210 cells

| Compound | IC50 |
| --- | --- |
| CCN(Cc1ccc2nc[nH]c(=S)c2c1)c1ccc(C(=O)NC(CCC(=O)O)C(=O)O)cc1 (stereo not drawn) | 260 nM |
| CCN(Cc1ccc2ncnc(SC)c2c1)c1ccc(C(=O)NC(CCC(=O)O)C(=O)O)cc1 (stereo not drawn) | 117000 nM |
| C#CCN(Cc1ccc2nc[nH]c(=S)c2c1)c1ccc(C(=O)NC(CCC(=O)O)C(=O)O)cc1 (stereo not drawn) | 110 nM |
